Test results: patent publication US20100075917A1, “THIONUCLEOSIDES AND PHARMACEUTICAL APPLICATIONS” (priority 2006, published 2010)
Like-named read-outs stand apart in the source and are kept apart here.

Tests used:
Moloney sarcoma virus = experiment: Inhibition of transformation of mouse embryo C3H/3T3 cells induced by Moloney sarcoma virus; format: cell-based; parameters: MIC (minimum inhibitory concentration): unit not given here; conditions: for EC50: C3H/3T3, read-out: EC50 (effective concentration 50%); for MIC (minimum inhibitory concentration): C3H/3T3 cells, a second bound is given in brackets for some compounds
Text: 2.2. Inhibitory Effect on the Transformation of Mouse Embryo C3H/3T3 Cells Induced by Moloney Sarcoma Virus (Model of Infection with HIV)

[1] = system: L1210/0 murine leukemia cells; experiment: Cytotoxic effect on L1210/0 cells; format: cell-based; conditions: Tables 5 and 7, L1210/0 cells
HIV-2 [2] = experiment: Anti-HIV-2 effect in CEM cells; format: cell-based; conditions: Human immunodeficiency virus 2, CCRF-CEM, read-out: EC50 HIV-2
Experimental: (§1) The evaluation test is described in Roy, B.; Chambert, S.; Lepoivre M.; Aubertin, A.-M.; Balzarini, J.; Décout, J.-L., Deoxyribonucleoside 2′- or 3′-mixed disulfides: prodrugs to target ribonucleotide reductase and/or to inhibit HIV reverse transcription. J. Med. Chem. 2003, 46, 2565-2568.
(§2) The toxicity and the antiviral activities were measured at different concentrations, and their evolution as a function of the concentration makes it possible to evaluate: • the concentration at which 50% of the cells are dead in the absence of virus (CC 50) for each of the test compounds, from the change in absorbance at 540 nm of formazan as a function of the concentration of test compound, • the concentration of compound that leads to a 50% reduction in the activity of viral reverse transcriptase (EC 50). This concentration is determined from the curve representing the change in the percentage of “remaining reverse transcriptase” activity (defined as being the ratio of the activity of the reverse transcriptase in the presence of the test compound to that of the untreated cells) as a function of the concentration of test compound.
(§3) EC50: concentration required to afford 50% protection to the CEM cells against the cytopathogenicity of HIV;

human Molt4/C8 cells = experiment: Cytotoxic effect on Molt4/C8 cells; format: cell-based; conditions: Tables 5 and 7, Molt4/C8 cells
HIV-1 = experiment: Anti-HIV-1 effect in CEM cells; format: cell-based; conditions: Human immunodeficiency virus 1, CCRF-CEM
Experimental: as §1, §2, §3

HIV-2 [3] = experiment: Anti-HIV-2 effect in CEM/TK− cells; format: cell-based; conditions: Human immunodeficiency virus 2, CEM-TK(-); Third Series; CEM cells having no thymidine kinase activity
Experimental: as §1, §2, §3
• Effect in CEM not expressing thymidine kinase activity (CEM/TK^−, cells having no thymidine kinase activity).

human CEM T4 lymphocytes = experiment: Cytotoxic effect on CEM T4 lymphocytes; format: cell-based; parameters: unit not given beside the values; conditions: Tables 5 and 7, CEM cells
CEM cells = experiment: Cytotoxic concentration in CEM cells (antiviral tests); format: cell-based, human; conditions: First and Second Series, second table; viability of CEM cells
Experimental: as §2
(§4) CC50: cytotoxic concentration or concentration required to reduce the viability of the CEM cells by 50%.

[4] = system: FM3A/0 murine mammary carcinoma cells; experiment: Cytotoxic effect on FM3A/0 cells; format: cell-based; parameters: unit not given beside the values; conditions: Tables 5 and 7, FM3A/0 cells
HeLa cells = experiment: Cytotoxic effect on HeLa cells; format: cell-based; parameters: unit not given beside the values; conditions: Tables 5 and 7, HeLa cells
[5] = system: human CEM-SS T lymphoma cells; experiment: Measurement of the intracellular concentrations of 2′-deoxyribonucleotides (dNTP); format: cell-based; conditions: 24 hours; for activity at 50 µM: 1 at 50 μM
Experimental: The protocol adopted for performing this test (Roy, B.; Beuneu, C.; Roux, P.; Buc, H.; Lemaire, G.; Lepoivre, M. Simultaneous determination of pyrimidine or purine deoxyribonucleoside triphosphates using a polymerase assay. Anal. Biochem., 1999, 269, 403-409) consists in culturing human CEM-SS T lymphoma cells in the presence of the test compounds. The concentrations of dNTP and in particular of dATP are measured after 24 hours of incubation. dATP is the nucleoside triphosphate whose concentration decreases the most during tests with standard ribonucleotide reductase inhibitors such as hydroxyurea, which was used as control.
The quantification is related to the number of live cells counted after staining with trypan blue or related to the initial number of cells (approximately two million). It is measured as a percentage relative to a control manipulation.
The effects of compound 1 at 50 μM on the concentrations of 2′-deoxynucleoside 5′-triphosphates (dNTP) necessary for DNA synthesis are calculated from the dNTP concentrations measured after 24 hours and determined in pmol of dNTP/million cells. The percentages are expressed as a percentage of the control with an average of four controls, taking the counts into account, and are compared with that of an anticancer agent, hydroxyurea (HU), tested at a concentration of 63 μM.

[6] = system: MCF-7 mammary carcinoma cells; experiment: Cytotoxicity (MTT) on MCF-7 cells; format: cell-based, human; conditions: Homo sapiens; for CC50: MCF7, read-out: CC50 MCF-7
Experimental: (§5) The cytotoxic effect of a compound is studied on human CEM cells and MCF-7 mammary carcinoma cells that are or are not resistant to gemcitabine, which is an anticancer nucleoside used in chemotherapy.
(§6) The cytotoxicity (CC50) was estimated by measuring the reduction of 3-(4,5-dimethylthiazol-2-yl)-2,5-diphenyltetrazolium bromide (MTT), which is converted into insoluble violet formazan. To do this, 100 000 cells (human CEM-SS or MCF-7 lines) are inoculated per well in 100 μl of culture medium, in 96-well microtitration plates. After 24 hours, the test products are added in 100 μl and incubation is continued for 48 to 72 hours. MIT is then added in a proportion of 20 μl of a solution at 5 mg/ml in PBS. Three hours later, 100 μl of a DMF/acetic acid/HCl/SDS (sodium dodecyl sulfate) solution are added. After 3 hours at 37° C., the absorbance of the formazan is measured at 590 nm and compared with that of the untreated control.

[7] = system: L1210 cell line (mouse lymphoma); experiment: Incorporation of tritiated thymidine; format: cell-based; conditions: L1210 cells
Experimental: These tests are performed on the L1210 cell line (mouse lymphoma) according to a published protocol (Lepoivre M., Flaman J.-M., Bobé P., Lemaire G., Henry Y. J. Biol. Chem., 1994, 269, 21891-21897). The wells are inoculated (10 000 cells per well) and, after culturing for 72 hours, [^3H]thymidine and the test compound are added to the culture medium. After incubation for 8 hours, the DNA is separated from the other cell constituents and the amount of labeled thymidine incorporated is quantified and compared with a control (without compound).
The effects of compound 1 at 50 μM and 200 μM, respectively, on the concentrations of tritiated thymidine incorporated are expressed as a percentage of the control.

human CEM cells = experiment: Cytotoxicity (MTT) on CEM cells; format: cell-based; conditions: for CC50: read-out: CC50 CEM; for EC50: Tables 4 and 6, CEM cells, some values 'then plateau'
Experimental: as §5, §6

[8] = Cytotoxic concentration in CEM cells (antiviral tests); format: cell-based, human; conditions: human; First and Second Series, second table; viability of CEM cells
Experimental: as §2, §4

[9] = system: MCF-7* (MCF-7 mammary carcinoma cells resistant to gemcitabine); experiment: Cytotoxicity (MTT) on gemcitabine-resistant MCF-7 cells; format: cell-based, human; conditions: listed as printed twice per table
Experimental: as §5, §6
Compounds 1 and 3 to 8 corresponding to formula (II) above; compound 2 corresponding to the non-silyl compound, it corresponds to formula (II) above in which R1 represents CH2CH2CH(CH3)2 and was also tested to observe a possible effect of the silicon. These compounds were evaluated for their cytotoxicity on human CEM cells and MCF-7 mammary carcinoma cells resistant (MCM-7*) or non-resistant (MCF-7) to gemcitabine, which is an anticancer nucleoside used in chemotherapy.

[10] = First and Second Series, second table, CEM cells
[11] = First and Second Series, second table, read-out: EC50 HIV-1
[12] = Third Series, read-out: EC50 HIV-1
[13] = Homo sapiens, MCF7, MCF-7 resistant to gemcitabine

Row | Compound | EC50 (Moloney sarcoma virus) [µM] | MIC (minimum inhibitory concentration) (Moloney sarcoma virus) | cytotoxic effect, L1210/0 [1] | EC50 (HIV-2 [2]; [10]) [µM] | EC50 (HIV-2 [2]; Third Series, CEM cells) [µM] | cytotoxic effect, Molt4/C8 (human Molt4/C8 cells) | EC50 (HIV-1; [11]) [µM] | EC50 (HIV-1; [12]) [µM] | EC50 (HIV-2 [3]) [µM] | cytotoxic effect, CEM (human CEM T4 lymphocytes) | cytotoxic effect, FM3A/0 [4] | cytotoxic effect, HeLa (HeLa cells) | CC50 [8] [µM] | EC50 (human CEM cells; Homo sapiens, CCRF-CEM) [µM] | further results
1 | CCCCSS[C@H]1C[C@H](n2cc(C)c(=O)[nH]c2=O)O[C@@H]1CO [Compound 24, 3′-deoxythymidin-3′-yl butyl disulfide] | 1 ± 0.5 | 100 | 32 ± 0 | > 10 | > 10 | 28 ± 7 | 8 ± 3 | > 10 | > 10 | 44 ± 1 | 286 ± 24 | 23 ± 2 | – | – | CC50 (CEM cells): 23.3 ± 0.6 µM
2 | NC(=O)NO [Hydroxyurea, hydroxyurea, reference compound] | – | – | – | – | – | – | – | – | – | – | – | – | – | – | activity at 63 µM ([5]; Hydroxyurea control, 63 μM, read-out: dTTP concentration, % of control): 51%
3 | C[Si](C)(C)CCSC1=C[C@@H](CO)O[C@H]1n1ccc(=O)[nH]c1=O [Compound 1, 2′,3′-Didehydro-2′,3′-dideoxy-2′-(2-trimethylsilyl)ethylthiouridine] | – | – | – | – | – | – | – | – | – | – | – | – | – | – | CC50 [6]: 69 µM; activity at 50 µM ([5]; read-out: dATP concentration, % of control): 50%; activity at 50 µM ([5]; read-out: dCTP concentration, % of control): 42%; activity at 50 µM ([5]; read-out: dGTP concentration, % of control): 31%; activity at 50 µM ([5]; read-out: dTTP concentration, % of control): 85%; decrease of the incorporation of tritiated thymidine into the DNA ([7]; 50 μM): 38%; tritiated thymidine incorporated as a percentage of the control ([7]; 50 μM): 62%; decrease of the incorporation of tritiated thymidine into the DNA ([7]; 200 μM): 86%; tritiated thymidine incorporated as a percentage of the control ([7]; 200 μM): 14%; CC50 (human CEM cells; Homo sapiens, CCRF-CEM): 156 µM
4 | Cc1cn([C@H]2CC(SSCCCCCCO)[C@@H](CO)O2)c(=O)[nH]c1=O (some centres unmarked) [Compound 18] | 8.3 ± 2.3 | >100 | 44 ± 1 | 11.7 ± 2.9 | 17.5 ± 11 | 66 ± 9 | 10.3 ± 5.7 | 22.5 ± 3.5 | > 50 | 187 ± 1 | ≧500 | 56 ± 8 | 107 ± 7 | 152 | EC50 (HIV-2 [2]; First and Second Series, first table, CEM cells): 6.5 ± 0.7 µM; EC50 (HIV-1; read-out: EC50 HIV-1, First and Second Series, first table): 4 µM
5 | Cc1cn([C@@H]2O[C@H](CO)C=C2SCC[Si](C)(C)C)c(=O)[nH]c1=O [Compound 3] | – | – | – | – | – | – | – | – | – | – | – | – | – | – | CC50 [6]: 40 µM; EC50 [9, 13]: 37 µM; EC50 ([9]; MCF-7 resistant to gemcitabine): 41 µM; CC50 (human CEM cells; Homo sapiens, CCRF-CEM): 13 µM
6 | C=CCSS[C@H]1C[C@H](n2cc(C)c(=O)[nH]c2=O)O[C@@H]1CO [Compound 20, 3′-deoxythymidin-3′-yl allyl disulfide] | 2.2 ± 0.3 | 100 | 43 ± 5 | 15 ± 7 | 20 ± 7 | 34 ± 6 | 12.5 ± 3.5 | 17.5 ± 3.5 | > 50 | 128 ± 18 | 299 ± 45 | 40 ± 7 | 53 ± 7 | 48 | EC50 (human CEM cells): 46 µM
7 | Cc1cn([C@H]2C[C@H](SSCCN)[C@@H](CO)O2)c(=O)[nH]c1=O.Cl [Compound 27, 3′-deoxythymidin-3′-yl 2-aminoethyl disulfide hydrochloride] | – | – | 65 ± 9 | – | – | 163 ± 41 | 27.5 ± 3.5 | 20 | 150 | 437 ± 71 | >500 | >100 | > 250 | – | EC50 (HIV-2 [2]): 27.5 ± 3.5 µM
8 | Cc1cn([C@H]2C[C@H](SSCCO)[C@@H](CO)O2)c(=O)[nH]c1=O [Compound 21, 3′-deoxythymidin-3′-yl 2-hydroxyethyl disulfide] | 5.9 ± 0.5 | >100 | 26 ± 3 | 14 ± 7 | 15 ± 7 | 128 ± 33 | 13.5 ± 3 | 17.5 ± 3.5 | > 50 | 347 ± 71 | >500 | ≧100 | > 250 | > 200 | –
9 | O=c1ccn([C@@H]2O[C@H](CO)C=C2SSC(Cl)(Cl)Cl)c(=O)[nH]1 [Compound 13, 2′,3′-didehydro-2′,3′-dideoxyuridin-2′-yl trichloromethyl disulfide] | – | – | – | – | – | – | – | – | – | – | – | – | – | – | EC50 ([6]; MCF7, Table 4, MCF-7): 194 µM; EC50 [9, 13]: 177 µM; EC50 ([9]; MCF-7 resistant to gemcitabine): 194 µM
